Earlier results as cited in article PMC9516332 (Frontiers in Oncology, 2022).
Read-outs that look alike come from different tables or passages of the source.

Columns and labels:
Conditions in all cases: cited from earlier work
[1] = biological target: panel of 255 wild-type kinases (Homo sapiens, UniProt O94804)
[2] = biological target: panel of 255 wild-type kinases (Homo sapiens, UniProt O96013)
[3] = biological target: panel of 255 wild-type kinases (Homo sapiens, UniProt P00533)
[4] = biological target: panel of 255 wild-type kinases (Homo sapiens, UniProt P04629)
[5] = biological target: panel of 255 wild-type kinases (Homo sapiens, UniProt P06239)
[6] = biological target: panel of 255 wild-type kinases (Homo sapiens, UniProt P11802)
[7] = biological target: panel of 255 wild-type kinases (Homo sapiens, UniProt P14616)
[8] = biological target: panel of 255 wild-type kinases (Homo sapiens, UniProt P16234)
[9] = biological target: panel of 255 wild-type kinases (Homo sapiens, UniProt P22455)
[10] = biological target: panel of 255 wild-type kinases (Homo sapiens, UniProt P43405)
[11] = biological target: panel of 255 wild-type kinases (Homo sapiens, UniProt P49759)
[12] = biological target: panel of 255 wild-type kinases (Homo sapiens, UniProt P50750)
[13] = biological target: panel of 255 wild-type kinases (Homo sapiens, UniProt P78362)
[14] = biological target: panel of 255 wild-type kinases (Homo sapiens, UniProt Q04759)
[15] = biological target: panel of 255 wild-type kinases (Homo sapiens, UniProt Q13555)
[16] = biological target: panel of 255 wild-type kinases (Homo sapiens, UniProt Q14680)
[17] = biological target: panel of 255 wild-type kinases (Homo sapiens, UniProt Q9H4B4)
[18] = biological target: panel of 255 wild-type kinases (Homo sapiens, UniProt Q9NYA1)
[19] = biological target: panel of 255 wild-type kinases (Homo sapiens, UniProt Q9P286)
[20] = kinase LOK, 1 µmol/L single concentration, ref DOI: 10.1158/1535-7163.MCT-18-0877
[21] = PAK4, 1 µmol/L single concentration, ref DOI: 10.1158/1535-7163.MCT-18-0877
[22] = kinase EGFR, 1 µmol/L single concentration, ref DOI: 10.1158/1535-7163.MCT-18-0877
[23] = kinase TRKA, 1 µmol/L single concentration, ref DOI: 10.1158/1535-7163.MCT-18-0877
[24] = kinase LCK, 1 µmol/L single concentration, ref DOI: 10.1158/1535-7163.MCT-18-0877
[25] = CDK4/CycD3 kinase assay, 1 µmol/L single concentration, ref DOI: 10.1158/1535-7163.MCT-18-0877
[26] = kinase IRR, 1 µmol/L single concentration, ref DOI: 10.1158/1535-7163.MCT-18-0877
[27] = kinase PDGFRα, 1 µmol/L single concentration, ref DOI: 10.1158/1535-7163.MCT-18-0877
[28] = kinase FGFR4, 1 µmol/L single concentration, ref DOI: 10.1158/1535-7163.MCT-18-0877
[29] = kinase SYK, 1 µmol/L single concentration, ref DOI: 10.1158/1535-7163.MCT-18-0877
[30] = kinase CLK1, 1 µmol/L single concentration, ref DOI: 10.1158/1535-7163.MCT-18-0877
[31] = CDK9/CycT1 kinase assay, 1 µmol/L single concentration, ref DOI: 10.1158/1535-7163.MCT-18-0877
[32] = kinase SRPK2, 1 µmol/L single concentration, ref DOI: 10.1158/1535-7163.MCT-18-0877
[33] = kinase PKCθ, 1 µmol/L single concentration, ref DOI: 10.1158/1535-7163.MCT-18-0877
[34] = CaMK2γ kinase assay, 1 µmol/L single concentration, ref DOI: 10.1158/1535-7163.MCT-18-0877
[35] = MELK, 1 µmol/L single concentration, ref DOI: 10.1158/1535-7163.MCT-18-0877
[36] = kinase PLK3, 1 µmol/L single concentration, ref DOI: 10.1158/1535-7163.MCT-18-0877
[37] = kinase SPHK1, 1 µmol/L single concentration, ref DOI: 10.1158/1535-7163.MCT-18-0877
[38] = PAK5, 1 µmol/L single concentration, ref DOI: 10.1158/1535-7163.MCT-18-0877

SMILES	%-inhibition at 1 µmol/L, LOK [1, 20]	%-inhibition, PAK4 [2, 21]	%-inhibition at 1 µmol/L, EGFR [3, 22]	%-inhibition at 1 µmol/L, TRKA [4, 23]	%-inhibition at 1 µmol/L, LCK [5, 24]	%-inhibition CDK4/CycD3 [6, 25]	%-inhibition at 1 µmol/L, IRR [7, 26]	%-inhibition at 1 µmol/L, PDGFRα [8, 27]	%-inhibition at 1 µmol/L, FGFR4 [9, 28]	%-inhibition at 1 µmol/L, SYK [10, 29]	%-inhibition at 1 µmol/L, CLK1 [11, 30]	%-inhibition CDK9/CycT1 [12, 31]	%-inhibition at 1 µmol/L, SRPK2 [13, 32]	%-inhibition at 1 µmol/L, PKCθ [14, 33]	%-inhibition CaMK2γ [15, 34]	%-inhibition, MELK [16, 35]	%-inhibition at 1 µmol/L, PLK3 [17, 36]	%-inhibition at 1 µmol/L, SPHK1 [18, 37]	%-inhibition, PAK5 [19, 38]	also measured
O=C(c1ccc(F)c(F)c1Nc1ccc(I)cc1F)N1CC(O)([C@@H]2CCCCN2)C1 [cobimetinib]	10%	2%	8%	18%	-3%	0.294%	-0.403%	11%	-0.0569%	-23%	-0.28%	1.36%	3%	-4.34%	-2.31%	2.53%	4%	-5.63%	0.678%	
CO[C@@H]1[C@H](N(C)C(=O)c2ccccc2)C[C@H]2O[C@]1(C)n1c3ccccc3c3c4c(c5c6ccccc6n2c5c31)C(=O)NC4 [midostaurin]	98%	30%	69%	100%	91%	-1.1%	26%	99%	38%	97%		49%	25%			95%	-0.227%	-2.46%	37%	
C=CC(=O)Nc1cc(Nc2nccc(-c3cn(C)c4ccccc34)n2)c(OC)cc1N(C)CCN(C)C [osimertinib]	42%	12%		27%	3.62%	2.42%	77%	69%	11%	-38%	47%	0.721%	3.77%	10%	4.25%	2.22%	5%	9%	6%	
CC#CC(=O)N1CCC[C@H]1c1nc(-c2ccc(C(=O)Nc3ccccn3)cc2)c2c(N)nccn12 [acalabrutinib]	3.37%	-1.65%	19%	13%	7%	-13%	-0.87%	1.38%	-9%	-19%	-8%	15%	0.686%	-8%	-1.85%	-0.54%	1.76%	-3%	-0.37%	
COc1cc(N2CCC(N3CCN(C)CC3)CC2)ccc1Nc1ncc(Cl)c(Nc2ccccc2P(C)(C)=O)n1 [brigatinib]																				%-inhibition at 1 µmol/L, LOK [1]: 96%; %-inhibition, PAK4 [2]: 45%; %-inhibition at 1 µmol/L, EGFR [3]: 97%; %-inhibition at 1 µmol/L, TRKA [4]: 83%; %-inhibition at 1 µmol/L, LCK [5]: 77%; %-inhibition CDK4/CycD3 [6]: 40%; %-inhibition at 1 µmol/L, IRR [7]: 99%; %-inhibition at 1 µmol/L, PDGFRα [8]: 96%; %-inhibition at 1 µmol/L, FGFR4 [9]: 82%; %-inhibition at 1 µmol/L, SYK [10]: 68%; %-inhibition at 1 µmol/L, CLK1 [11]: 100%; %-inhibition CDK9/CycT1 [12]: 5.35%; %-inhibition at 1 µmol/L, SRPK2 [13]: 10%; %-inhibition at 1 µmol/L, PKCθ [14]: 29%; %-inhibition CaMK2γ [15]: 96%; %-inhibition, MELK [16]: 49%; %-inhibition at 1 µmol/L, PLK3 [17]: -2.57%; %-inhibition at 1 µmol/L, SPHK1 [18]: -4%; %-inhibition, PAK5 [19]: 82%
CCCS(=O)(=O)Nc1ccc(F)c(C(=O)c2c[nH]c3ncc(-c4ccc(Cl)cc4)cc23)c1F [vemurafenib]																				%-inhibition at 1 µmol/L, LOK ([1]; kinase LOK, 1 µmol/L single concentration, ref DOI: 10.1371/journal.pone.0092146): -1%; %-inhibition, PAK4 ([2]; PAK4, 1 µmol/L single concentration, ref DOI: 10.1371/journal.pone.0092146): -7%; %-inhibition at 1 µmol/L, EGFR ([3]; kinase EGFR, 1 µmol/L single concentration, ref DOI: 10.1371/journal.pone.0092146): 7%; %-inhibition at 1 µmol/L, TRKA ([4]; kinase TRKA, 1 µmol/L single concentration, ref DOI: 10.1371/journal.pone.0092146): 16%; %-inhibition at 1 µmol/L, LCK ([5]; kinase LCK, 1 µmol/L single concentration, ref DOI: 10.1371/journal.pone.0092146): 81%; %-inhibition CDK4/CycD3 ([6]; CDK4/CycD3 kinase assay, 1 µmol/L single concentration, ref DOI: 10.1371/journal.pone.0092146): -3.26%; %-inhibition at 1 µmol/L, IRR ([7]; kinase IRR, 1 µmol/L single concentration, ref DOI: 10.1371/journal.pone.0092146): 21%; %-inhibition at 1 µmol/L, PDGFRα ([8]; kinase PDGFRα, 1 µmol/L single concentration, ref DOI: 10.1371/journal.pone.0092146): 87%; %-inhibition at 1 µmol/L, FGFR4 ([9]; kinase FGFR4, 1 µmol/L single concentration, ref DOI: 10.1371/journal.pone.0092146): 5%; %-inhibition at 1 µmol/L, SYK ([10]; kinase SYK, 1 µmol/L single concentration, ref DOI: 10.1371/journal.pone.0092146): -3.77%; %-inhibition at 1 µmol/L, CLK1 ([11]; kinase CLK1, 1 µmol/L single concentration, ref DOI: 10.1371/journal.pone.0092146): 5%; %-inhibition CDK9/CycT1 ([12]; CDK9/CycT1 kinase assay, 1 µmol/L single concentration, ref DOI: 10.1371/journal.pone.0092146): 1.33%; %-inhibition at 1 µmol/L, SRPK2 ([13]; kinase SRPK2, 1 µmol/L single concentration, ref DOI: 10.1371/journal.pone.0092146): -2.2%; %-inhibition at 1 µmol/L, PKCθ ([14]; kinase PKCθ, 1 µmol/L single concentration, ref DOI: 10.1371/journal.pone.0092146): -3%; %-inhibition CaMK2γ ([15]; CaMK2γ kinase assay, 1 µmol/L single concentration, ref DOI: 10.1371/journal.pone.0092146): -10%; %-inhibition, MELK ([16]; MELK, 1 µmol/L single concentration, ref DOI: 10.1371/journal.pone.0092146): 4%; %-inhibition at 1 µmol/L, PLK3 ([17]; kinase PLK3, 1 µmol/L single concentration, ref DOI: 10.1371/journal.pone.0092146): -2.83%; %-inhibition at 1 µmol/L, SPHK1 ([18]; kinase SPHK1, 1 µmol/L single concentration, ref DOI: 10.1371/journal.pone.0092146): -11%; %-inhibition, PAK5 ([19]; PAK5, 1 µmol/L single concentration, ref DOI: 10.1371/journal.pone.0092146): -1.23%
